Our source for the GI50 and TGI values is PubChem BioAssay (NCI).

“And” between values parts separate entries of the source, which are not always exact repeats. Identical values can stand only once.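 Exposure lasted 48 hours, with cells grown in 96-well plates and compounds tested at five concentrations. Here, GI50 denotes the concentration required for 50% inhibition of growth. TGI: total growth inhibition.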

Holding throughout (assay): NCI anticancer screen, dose series, 48 h
For assay [1], the system named is BT-549 breast.
Assay [2] concerns HCT-15 colon.
Assay [3] relates to KM12 colon.
The subject of assay [4] is MDA-MB-231 breast.
Assay [5] concerns OVCAR-3 ovarian.
The test system of assay [6] is RXF 393 renal.
Assay [7] concerns SNB-75 CNS.
For assay [8], the system named is U251 CNS.

As for `O=Nc1c(O)ccc2ccccc12`, the GI50 in assay [1] was 12.2 µM; in assay [2], 3.85 µM; in assay [3], 5.26 µM; in assay [4] it was 2.03 µM; in assay [5] it was 2.55 µM; in assay [6], 6.54 µM. Also, the GI50 was 2.52 µM in assay [7] and 2.17 µM in assay [8]. Besides, the TGI in assay [1] is 24.9 µM; in assay [2], 15.9 µM; in assay [3] it was 18.4 µM; in assay [4], 10.2 µM; in assay [5] it was 9.15 µM; in assay [6] it was 19.5 µM. Also, the TGI stood at 14.5 µM in assay [7] and 5.52 µM in assay [8].

For `COC(=O)CCC1=C(C)c2cc3[n-]c(cc4nc(cc5[n-]c(cc1n2)c(CCC(=O)OC)c5C)C=C4C)cc3C.[Cd+2]`, the GI50 is 0.925 µM in assay [1]; 11.8 µM in assay [2]; 3.46 µM in assay [3]; 7.28 µM in assay [4]; 1.73 µM in assay [5]; 2.88 µM in assay [6]. Besides, the GI50 in assay [7] was 6.62 µM; in assay [8], 2.82 µM. Besides, the TGI is 2.39 µM in assay [1]; greater than 55 µM in assay [2]; 13.6 µM in assay [3]; 31.4 µM in assay [4]; 3.81 µM in assay [5]; 10.9 µM in assay [6]. The TGI in assay [7] turned out to be 33.8 µM; in assay [8], 9.98 µM.

`Cc1nc(NC(=O)N2CCC[C@H]2C(N)=O)sc1-c1ccnc(C(C)(C)C(F)(F)F)c1`: the GI50 in assay [1] was 4.91 µM and 6.33 µM; in assay [2], 1.36 µM and 2.81 µM; in assay [3], 15.4 µM and > 10 µM; in assay [4], 11.3 µM and > 10 µM; in assay [5], 4.16 µM and 8 µM; in assay [6] it was 2.78 µM and 3.45 µM. For the same compound, the GI50 in assay [7] is 0.594 µM; in assay [8] it was 3.22 µM and 5.54 µM. For the same compound, the TGI in assay [1] is 44.6 µM and > 10 µM; in assay [2], 47 µM and > 10 µM; in assay [3] it was greater than 91.5 µM; in assay [4], 32 µM and > 10 µM; in assay [5], 30.7 µM and > 10 µM; in assay [6], 17.3 µM and > 10 µM. For the same compound, the TGI is 15.5 µM in assay [7]; 18.7 µM and > 10 µM in assay [8].

Consider `Cn1cnc([N+](=O)[O-])c1Sc1ncnc2c1ncn2C1OC(CO)C(O)C1O` (configuration not stated), for which the GI50 in assay [1] was greater than 100 µM; in assay [2] it was 11.6 µM; in assay [3] it was 6.34 µM; in assay [4] it was 9.62 µM; in assay [5], 3.93 µM; in assay [6], 24.6 µM. The figures for the GI50 in assay [7] and in assay [8] were 27.7 µM and 8.79 µM, respectively. Further, the TGI in assay [1], in assay [2], in assay [3], in assay [4], in assay [5] and in assay [6] was greater than 100 µM each time. The TGI in assay [7] and in assay [8] was greater than 100 µM each time.

With `CC(=O)Oc1cccc2c1C(=O)c1c(OC(C)=O)cc(C)cc1C2=O`, the TGI in assay [1], in assay [2], in assay [3], in assay [4], in assay [5] and in assay [6] was greater than 100 µM each time. Also, the TGI in assay [7] and in assay [8] was greater than 100 µM in each case.

Turning to `Oc1ccc2ccccc2c1N=Nc1ccccc1`, the TGI in assay [1], in assay [2], in assay [3], in assay [4], in assay [5] and in assay [6] was greater than 100 µM throughout. The TGI in assay [7] and in assay [8] was greater than 100 µM throughout. In addition, in assay [3], the GI50 was 4.95 µM and 32.4 µM.

For the compound `COc1ccc(/C=C(\C#N)c2cc3ccccc3n2C)cc1`, the GI50 is 0.627 µM in assay [1]; 0.372 µM in assay [2]; 0.503 µM in assay [3]; 0.699 µM in assay [4]; 0.336 µM in assay [5]; 0.244 µM in assay [6]. Also, the GI50 in assay [7] is 0.198 µM; in assay [8], 0.493 µM. For the same compound, the TGI in assay [1] is greater than 100 µM; in assay [2], greater than 100 µM; in assay [3] it was greater than 100 µM; in assay [4] it was greater than 100 µM; in assay [5] it was 3.19 µM; in assay [6] it was 0.834 µM. Also, the TGI in assay [7] is 5.5 µM; in assay [8], greater than 100 µM.

Regarding `CC1OC(O)C(O)C(O)C1O` (configuration not stated), the TGI in assay [1], in assay [2], in assay [3], in assay [4], in assay [5] and in assay [6] was greater than 100 µM each time. Moreover, the TGI in assay [7] and in assay [8] was greater than 100 µM in each case.

With `COc1ccc(/C=C2\N=C3SC=C(N)N3C2=O)cc1`, the GI50 in assay [1] is 0.73 µM; in assay [2] it was 0.817 µM; in assay [3], 3.08 µM; in assay [4], 1.05 µM; in assay [5] it was 1.14 µM; in assay [6], 0.303 µM. Besides, the values for the GI50 in assay [7] and in assay [8] were 0.757 µM and 1.32 µM, respectively. Besides, the TGI in assay [1] turned out to be 3.84 µM; in assay [2] it was 3.98 µM; in assay [3], 15.6 µM; in assay [4], 3.63 µM; in assay [5], 2.98 µM; in assay [6] it was 1.58 µM. The TGI is 7.61 µM in assay [7] and 5.49 µM in assay [8].

As to `O=[N+]([O-])c1ccc2c(N=Nc3c(O)ccc4ccccc34)c(O)cc(S(=O)(=O)O)c2c1`, the GI50 in assay [1] is 37.5 µM; in assay [2], 29.9 µM; in assay [3], 49.9 µM; in assay [4], greater than 100 µM; in assay [5] it was 9.36 µM; in assay [6], 27.1 µM. For the same compound, the values for the GI50 in assay [7] and in assay [8] were 44.8 µM and 12.5 µM, respectively. Further, the TGI in assay [1] is 50 µM and > 100 µM; in assay [2] it was 50 µM and > 100 µM; in assay [3], 50 µM and > 100 µM; in assay [4], 50 µM and > 100 µM; in assay [5] it was 50 µM and > 100 µM; in assay [6], 50 µM and > 100 µM. The TGI in assay [7] is 50 µM and > 100 µM; in assay [8], 50 µM and > 100 µM.
